Experimental data published in PubChem BioAssay AID179 (DTP/NCI, 2004).
Active and inactive are the calls of the source.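 The calls were made as follows: active = compounds giving half or more protection of infected cells from virus-caused growth loss, again on retest; inactive = the rest.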 Where a SMILES comes first, the peptide text is derived from it.

Tested on: CEM cells HIV-1 protection, formazan growth assay
Assay: NCI AIDS Antiviral Assay
Details: for IC50: measured here: growth of uninfected CEM cells
Outline: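 Soluble formazan readout of cell growth; CEM cells ± HIV-1; 5 drug concs. ≥50% protection → retest; ≥50% again = moderately active; reproducible 100% = confirmed active.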

## COc1ccc(N2C(=O)[C@@H]3[C@@H]4CC(C)CC[C@@H]4c4c([nH]c5ccccc45)[C@@H]3C2=O)cc1 (some centres undefined)
  EC50: > 3.31 µM
  IC50: > 3.31 µM

## CC(=O)c1nc2ccccc2n1CC(=O)c1ccc([N+](=O)[O-])cc1
  EC50: > 200 µM
  IC50: 7.59 µM

## O=c1[nH]c(=O)n(C2COC(CO)C2O)cc1F (centres undefined)
  EC50: > 200 µM
  IC50: 6.03 µM

## CCCN1CCC(=O)N(CCC(F)(F)C(F)(F)C(F)(F)C(F)(F)C(F)(F)C(F)(F)F)C1=S
  EC50: > 50.1 µM
  IC50: > 50.1 µM

## O=C(c1ccco1)N1CCCN(C(=O)c2ccco2)C1=S
  EC50: > 200 µM
  IC50: 28.2 µM

## CC1CC/C(=C\c2ccc(F)cc2)C2=C1C(c1ccc(F)cc1)N1C(=O)CSC1=N2 (centres undefined)
  EC50: > 200 µM
  IC50: 75.9 µM

## Cn1cnnc1Sc1c([N+](=O)[O-])ncn1C
  EC50: > 1050 µM
  IC50: 9.12 µM

## CN(c1ccc(/C=C/c2ccccc2)cc1)P1(=O)NCCCO1 (centres undefined)
  EC50: > 41.7 µM
  IC50: 28.2 µM

## O=C(CN(c1ccc(S(=O)(=O)O)cc1)c1ccc(S(=O)(=O)O)cc1)Nn1cnc2ccc(S(=O)(=O)N(c3ccc(S(=O)(=O)O)cc3)c3ccc(S(=O)(=O)O)cc3)cc2c1=O
  EC50: > 100 µM
  IC50: 95.5 µM

## CC12Nc3c(Cl)cc(Cl)cc3N1C(=O)c1ccccc12 (centres undefined)
  EC50: > 200 µM
  IC50: 87.1 µM

## Cc1cc2c(C)c(-c3ccccc3)c(=O)oc2c(C#N)c1C
  EC50: > 200 µM
  IC50: 170 µM

## COc1ccc(/C=C/c2cc(OC)c(OC)c(OC)c2)cc1O[Si](C)(C)C(C)(C)C
  EC50: > 8.71 µM
  IC50: 0.479 µM

## COC(=O)C1=C(C)C(=O)C2(CCCCCC2C(=O)OC)C1 (centres undefined)
  EC50: > 200 µM
  IC50: > 200 µM

## OCCCCCCCCCCCOc1ccc(C2OCC3(CO2)COC(c2ccc(OCCCCCCCCCCCO)cc2)OC3)cc1 (centres undefined)
  EC50: > 50.1 µM
  IC50: > 50.1 µM

## COc1cccc(C=C(C#N)C#N)c1OC
  EC50: > 200 µM
  IC50: > 100 µM

## O=[N+]([O-])c1cccc(C2=NC(=S)NC(c3cc(Cl)ccc3O)C2)c1 (centres undefined)
  EC50: > 200 µM
  IC50: 141 µM

## CN(CCn1cnc2c1c(=O)n(C)c(=O)n2C)C1CCCCC1
  EC50: > 200 µM
  IC50: > 200 µM

## NC1=Nc2cc(Cl)ccc2Sc2nc3ccccc3n21
  EC50: > 200 µM
  IC50: 20.9 µM

## c1ccc2cc(CNCCCCNCCCNCc3ccc4ccccc4c3)ccc2c1
  EC50: > 200 µM
  IC50: 0.257 µM

## CC(C)CC(NC(=O)C(Cc1cnc[nH]1)NC(=O)C(CC(N)=O)NC(=O)C(NC(=O)C(CO)NC(=O)C(Cc1ccc(O)cc1)NC(=O)C(CO)NC(=O)C(C)NC(=O)C(CCCCN)NC(=O)C(N)CC(=O)O)C(C)O)C(=O)O (centres undefined) (H-DKASYSTNHL-OH; configuration not given here)
  EC50: > 55 µM
  IC50: > 55 µM

## CCOC(=O)/C(O)=C(/C=N/C(=S)Nc1c(CC)cccc1CC)C(=O)OCC
  EC50: > 200 µM
  IC50: 110 µM

## O=S1(=O)c2ccccc2N=C(c2ccccc2Cl)CC1c1ccc(F)cc1 (centres undefined)
  EC50: > 14.8 µM
  IC50: 10.5 µM

## CC(C)CC(NC(=O)C(CCI)Cc1ccccc1)C(=O)Nc1ccccc1 (centres undefined)
  EC50: > 200 µM
  IC50: 32.4 µM

## O=C(c1ccco1)[N+]1=Cc2[nH]c3ccccc3c2CC1
  EC50: > 170 µM
  IC50: 97.7 µM

## CCOP1(=O)CC(C)=C(Cl)C(OC)C1 (centres undefined)
  EC50: > 200 µM
  IC50: 107 µM

## CC(=O)OC1SC(OC(C)=O)C2OC(=O)OC12 (centres undefined)
  EC50: > 871 µM
  IC50: 155 µM

## O=C1NS(=O)(=O)c2ccccc21
  EC50: > 1200 µM
  IC50: > 1200 µM

## Cc1nc2ccc(Cl)cc2c(Cl)c1CCCl
  EC50: > 200 µM
  IC50: 10.7 µM

## O=C(OC[C@]12OC1C=C[C@H](OC(=O)c1ccccc1)C2O)c1ccccc1 (some centres undefined)
  EC50: > 24.5 µM
  IC50: 23.4 µM

## CCOC(=O)C(NC(=O)OCc1ccccc1)C(=O)O (centres undefined)
  EC50: > 200 µM
  IC50: > 200 µM

## CC(=O)ONc1nn2cc(-c3ccccc3)nc2s1
  EC50: > 200 µM
  IC50: > 200 µM

## c1ccc2c(c1)OCc1nccn1-2
  EC50: > 200 µM
  IC50: 97.7 µM

## CC12CP(=O)(c3ccccc3)CC1c1ccccc1C2c1ccccc1 (centres undefined)
  EC50: > 200 µM
  IC50: 31.6 µM

## CC(C)c1ccc(O)c(=O)cc1
  outcome: inactive

## CCOC(=O)c1cnn2c(SC)ncnc12
  EC50: > 282 µM
  IC50: 67.6 µM

## CCCOC1=NC2=NC(OCCC)=NC3=C(Br)C=C(Br)C(=N1)N23
  EC50: > 42.7 µM
  IC50: > 42.7 µM

## N#CC(/C(CCCC(=O)Nc1cccc([N+](=O)[O-])c1)=N/NC(=O)c1cc2ccccc2cc1O)c1ccccc1 (centres undefined)
  EC50: > 35.5 µM
  IC50: 15.5 µM

## COc1ccc(N2C(=O)C3c4[nH]c5ccccc5c4C4C(C)CCCC4C3C2=O)cc1 (centres undefined)
  EC50: > 200 µM
  IC50: 8.13 µM

## CC(C)NC(=O)N(Nc1ccccc1)C(C)(C)C
  EC50: > 200 µM
  IC50: 110 µM

## Cc1c(N2CCOCC2)nc2ccc(Cl)cc2c1-c1ccccc1
  EC50: > 4.27 µM
  IC50: > 4.27 µM

## NCCCn1c(Cl)nc2ccccc21
  EC50: > 200 µM
  IC50: > 200 µM

## CC1CN1c1c(C(=O)/C=C/c2ccc(F)cc2)c(-c2ccccc2)nn(C)c1=O (centres undefined)
  EC50: > 120 µM
  IC50: 11 µM

## C/C=C/COC(=O)CO[N+](=O)[O-]
  outcome: inactive
